Experimental data from patent US11104661B1, “Inhibiting human integrin (α-4) (β-7)” (Morphic Therapeutic, Inc., priority 2019, dated 2021).
pIC50: −log10 of the molar value.

Target: T1, α4β7 (Homo sapiens, UniProt P13612+P26010)
T1 construct: endogenous in cells; host or cells: RPMI 8866 cells
T1 sequence (P13612 34-1032): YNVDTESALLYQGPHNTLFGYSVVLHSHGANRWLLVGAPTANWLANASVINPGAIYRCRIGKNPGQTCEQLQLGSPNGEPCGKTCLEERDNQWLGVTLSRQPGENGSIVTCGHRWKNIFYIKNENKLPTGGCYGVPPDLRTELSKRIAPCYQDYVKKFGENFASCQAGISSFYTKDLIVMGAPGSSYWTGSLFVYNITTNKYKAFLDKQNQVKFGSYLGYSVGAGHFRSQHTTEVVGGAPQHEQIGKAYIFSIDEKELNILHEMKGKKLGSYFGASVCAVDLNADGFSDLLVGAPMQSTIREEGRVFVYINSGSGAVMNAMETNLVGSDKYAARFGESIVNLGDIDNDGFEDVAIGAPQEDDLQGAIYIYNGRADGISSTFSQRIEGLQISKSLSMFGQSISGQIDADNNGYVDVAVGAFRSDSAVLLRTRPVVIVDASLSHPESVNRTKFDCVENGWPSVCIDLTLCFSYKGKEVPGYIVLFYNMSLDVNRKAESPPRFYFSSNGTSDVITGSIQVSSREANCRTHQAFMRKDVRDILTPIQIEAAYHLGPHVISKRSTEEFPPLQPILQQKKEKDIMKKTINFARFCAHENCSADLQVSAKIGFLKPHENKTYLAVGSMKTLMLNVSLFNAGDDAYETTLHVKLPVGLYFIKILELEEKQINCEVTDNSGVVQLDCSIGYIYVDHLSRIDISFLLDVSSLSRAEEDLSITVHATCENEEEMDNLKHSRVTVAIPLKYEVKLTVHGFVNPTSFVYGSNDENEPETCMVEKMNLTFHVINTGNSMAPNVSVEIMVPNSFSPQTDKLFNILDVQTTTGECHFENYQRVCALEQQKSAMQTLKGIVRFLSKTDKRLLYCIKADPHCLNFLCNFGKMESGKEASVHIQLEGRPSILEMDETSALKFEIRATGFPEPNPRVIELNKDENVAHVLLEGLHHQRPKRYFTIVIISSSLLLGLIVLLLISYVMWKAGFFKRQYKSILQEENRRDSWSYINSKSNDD
T1 sequence (P26010 20-798): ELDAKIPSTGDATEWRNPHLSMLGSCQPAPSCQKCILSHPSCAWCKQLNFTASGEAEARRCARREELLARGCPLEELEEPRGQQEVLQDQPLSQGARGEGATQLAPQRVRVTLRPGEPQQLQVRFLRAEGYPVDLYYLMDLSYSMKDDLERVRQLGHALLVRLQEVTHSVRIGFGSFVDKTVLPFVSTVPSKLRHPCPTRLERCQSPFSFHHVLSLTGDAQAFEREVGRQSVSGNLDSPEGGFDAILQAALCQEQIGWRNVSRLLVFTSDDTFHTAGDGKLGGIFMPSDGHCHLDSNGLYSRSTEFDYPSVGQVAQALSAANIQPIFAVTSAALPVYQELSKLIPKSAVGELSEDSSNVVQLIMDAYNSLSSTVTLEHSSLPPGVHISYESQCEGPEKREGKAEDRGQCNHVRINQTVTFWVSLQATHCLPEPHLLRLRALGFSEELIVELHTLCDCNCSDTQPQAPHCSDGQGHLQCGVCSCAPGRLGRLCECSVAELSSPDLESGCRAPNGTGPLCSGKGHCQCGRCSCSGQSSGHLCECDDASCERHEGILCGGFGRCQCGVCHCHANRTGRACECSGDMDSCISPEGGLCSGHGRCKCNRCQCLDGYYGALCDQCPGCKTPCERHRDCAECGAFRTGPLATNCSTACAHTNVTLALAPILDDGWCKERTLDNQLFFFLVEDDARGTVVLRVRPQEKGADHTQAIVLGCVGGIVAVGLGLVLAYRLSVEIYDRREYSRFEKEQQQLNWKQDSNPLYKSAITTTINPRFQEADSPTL
Assay: Cell adhesion assay, RPMI8866 cells on MAdCAM coated plates (Example 7)
Assay type: cell-based
Conditions: RPMI8866 cells adhering to recombinant human MAdCAM; Table 4 comparative compounds; read-out: CA Assay (Example 7)
Description: Three in vitro assays were used to examine the α4β7 mechanistic process used by cells: 1) ligand:receptor affinity, 2) the avidity of those interactions on a cell's surface, and 3) how those interactions fare under an imposing force. In Example 5, a Fluorescence Polarization (FP) assay is used to measure compound activity through binding competition with the fluorescein-labeled peptide. In Example 6, the potency of compounds against α4β7 is measured in the cell-based ligand binding assay (LBA), using RPMI 8866 cells incubated with the compound samples in competition with soluble MAdCAM-1 ligand. In Example 7, activity of compounds is evaluated in a cell adhesion assay that mechanistically tests what occurs in vivo when trafficking cells utilize α4β7 to adhere to MAdCAM-1 expressing HEVs of the gut during the extravasation process. In the cell adhesion assay of Example 7, a MAdCAMI1-(Fc) is coated on plastic, and α4β7 expressing cells (RPMI-8866) are allowed to adhere to the coated surface in the presence of the test compounds. Next, the force of washing with buffer is applied to cells thereby testing the strength of that adhesion. Unattached cells are removed and the remaining adherent cells are quantified.
Example 7 describes a cell adhesion assay.
To each well of a 96 well plate, 100 ug of recombinant human MAdCAM in 100 ul PBS is added and incubated overnight at 4° C. After incubation MAdCAM is removed by aspiration and 200 ul of PBS+1% BSA is added to block the plate for 2 hours at 37° C. and 5% CO2. During this incubation dilution curves of compound are made in 100% DMSO in 96 well V bottom plates. 1.75 ul of diluted compounds are then transferred to a new 96 well U bottom plate containing 20 ul of assay media (phosphate free DMEM+25 mM HEPES+1% BSA). To this an additional 155 ul of assay media is added with mixing by pipetting up and down. This mixture is allowed to incubate for 15 minutes at 37° C. and 5% CO2. After incubation 175 ul of assay media containing 2e6/mL RPMI8866 cells is added to compound containing wells without mixing and plate is allowed to incubate for another 15 minutes at 37° C. and 5% CO2. During this incubation MAdCAM coated plates are removed from incubator and washed twice with 200 ul PBS+0.1% BSA. […] This plate is then incubated at 37° C. and 5% CO2 for 1 hour. After incubation plates are washed twice with 200 ul and once with 50 ul of phenol free RPMI+1% BSA. A final 50 ul of phenol free RPMI+1% BSA is added to wells after last wash. Next 50 ul of Promega cell titer glow is added to the wells. Plate is incubated on shaker for 2 minutes at 200 RPM followed by another 8 minutes off shaker before having the luminescence read on a Biotek Citation 5 plate reader. Raw data is converted to % inhibition compared to bottom of curve and analyzed using a 4-parameter non linear curve in Prism to determine IC50 and IC90.

pIC50: < 6.30
Compound: Cc1ccccc1-c1cc([C@H](CC(=O)O)NC(=O)[C@H](CC(C)C)n2ccccc2=O)ccc1C
